Test results as given in publication PMC8667902 (Journal of Enzyme Inhibition and Medicinal Chemistry, 2021).
Read-outs that look alike come from different tables or passages of the source.

Assays:
ratBuChE = ratBuChE (Rattus norvegicus, UniProt Q9JKC1); assay: Ellman's method, BuChE from rat serum; format: biochemical
huMAO-A = target: T1, huMAO-A (Homo sapiens, UniProt P21397); assay: huMAO-A inhibition, fluorescence method; format: biochemical; details: for inhibition at 10 µM: read-out: MAO-A percent inhibition rate
T1 sequence (P21397 1-527): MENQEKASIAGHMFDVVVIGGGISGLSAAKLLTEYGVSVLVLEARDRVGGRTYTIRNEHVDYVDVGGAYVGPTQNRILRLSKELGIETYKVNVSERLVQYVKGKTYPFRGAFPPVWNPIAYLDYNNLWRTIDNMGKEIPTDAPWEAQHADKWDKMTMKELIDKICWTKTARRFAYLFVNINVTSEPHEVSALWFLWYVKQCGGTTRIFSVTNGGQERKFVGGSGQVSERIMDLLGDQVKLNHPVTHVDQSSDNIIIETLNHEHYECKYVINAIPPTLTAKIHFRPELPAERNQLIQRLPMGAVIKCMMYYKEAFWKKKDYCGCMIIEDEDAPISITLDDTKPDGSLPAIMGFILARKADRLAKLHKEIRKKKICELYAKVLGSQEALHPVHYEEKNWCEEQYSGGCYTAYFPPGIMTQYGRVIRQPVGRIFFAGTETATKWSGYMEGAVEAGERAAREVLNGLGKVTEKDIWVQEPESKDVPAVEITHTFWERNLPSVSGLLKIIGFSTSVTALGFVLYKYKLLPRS

ratAChE = target: T2, ratAChE (Rattus norvegicus, UniProt P37136); assay: Ellman's method, AChE from rat cortex homogenate; format: biochemical; details: for SI = Selectivity index = IC50 (BuChE)/IC50 (AChE): ratBuChE over rat AChE
T2 sequence (P37136 32-614): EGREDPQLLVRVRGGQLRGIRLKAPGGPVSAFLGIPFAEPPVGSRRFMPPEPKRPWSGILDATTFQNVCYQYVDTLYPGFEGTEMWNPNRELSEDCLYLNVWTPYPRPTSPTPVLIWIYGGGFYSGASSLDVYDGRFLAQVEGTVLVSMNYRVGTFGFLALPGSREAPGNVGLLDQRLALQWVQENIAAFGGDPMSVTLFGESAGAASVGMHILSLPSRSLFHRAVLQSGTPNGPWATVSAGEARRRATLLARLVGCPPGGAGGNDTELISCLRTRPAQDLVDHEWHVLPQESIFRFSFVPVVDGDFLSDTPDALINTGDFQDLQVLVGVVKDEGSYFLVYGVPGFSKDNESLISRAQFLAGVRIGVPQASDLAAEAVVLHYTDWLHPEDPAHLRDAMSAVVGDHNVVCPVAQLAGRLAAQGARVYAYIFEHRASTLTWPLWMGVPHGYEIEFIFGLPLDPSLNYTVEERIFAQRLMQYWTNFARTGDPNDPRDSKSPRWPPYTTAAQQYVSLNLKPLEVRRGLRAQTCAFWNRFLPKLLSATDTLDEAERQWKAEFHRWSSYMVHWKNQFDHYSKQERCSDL

huMAO-B = target: T3, huMAO-B (Homo sapiens, UniProt P27338); assay: biochemical
T3 sequence (P27338 1-520): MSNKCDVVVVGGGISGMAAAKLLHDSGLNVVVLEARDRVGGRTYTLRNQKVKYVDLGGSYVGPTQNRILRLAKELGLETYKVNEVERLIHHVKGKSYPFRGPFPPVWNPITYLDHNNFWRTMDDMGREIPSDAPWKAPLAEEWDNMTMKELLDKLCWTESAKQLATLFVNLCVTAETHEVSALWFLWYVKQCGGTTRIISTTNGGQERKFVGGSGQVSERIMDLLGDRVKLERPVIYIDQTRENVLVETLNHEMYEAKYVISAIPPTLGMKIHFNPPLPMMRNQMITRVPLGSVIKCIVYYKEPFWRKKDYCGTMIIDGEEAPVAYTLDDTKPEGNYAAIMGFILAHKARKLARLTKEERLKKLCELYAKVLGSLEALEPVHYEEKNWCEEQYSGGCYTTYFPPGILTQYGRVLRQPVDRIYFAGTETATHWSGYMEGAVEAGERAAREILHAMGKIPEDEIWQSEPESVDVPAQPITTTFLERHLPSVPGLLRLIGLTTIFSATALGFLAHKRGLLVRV

Aβ1–42 fibrils [1] = target: T4, Aβ1–42 fibrils (Homo sapiens, UniProt P05067); assay: Disaggregation of Cu2+-induced Aβ1–42 aggregation; format: biochemical
Aβ1–42 [2] = target: T5, Aβ1–42 (Homo sapiens, UniProt P05067); assay: Inhibition of self-induced Aβ1–42 aggregation; format: biochemical; details: ThT assay; for inhibition at 25 µM: read-out: Inhibition of Aβ1–42 aggregation (%) Self-induced, 25 μM
Aβ1–42 [3] = target: T5, Aβ1–42; assay: Inhibition of Cu2+-induced Aβ1–42 aggregation; format: biochemical; details: read-out: Inhibition of Aβ1–42 aggregation (%) Cu^2+-induced
[4] = Oxygen Radicals Absorbance Capacity by Fluorescence; details: for ORAC: Trolox as reference; for ORAC-FL value: Trolox equivalents
Aβ1–42 fibrils [5] = target: T4, Aβ1–42 fibrils; assay: Disaggregation of self-induced Aβ1–42 aggregation; format: biochemical; details: 25 μM; ThT assay
eeAChE = eeAChE (Electrophorus electricus, UniProt O42275); assay: Ellman's method, electric eel AChE; format: biochemical
eeAChE, sequence (O42275 24-633): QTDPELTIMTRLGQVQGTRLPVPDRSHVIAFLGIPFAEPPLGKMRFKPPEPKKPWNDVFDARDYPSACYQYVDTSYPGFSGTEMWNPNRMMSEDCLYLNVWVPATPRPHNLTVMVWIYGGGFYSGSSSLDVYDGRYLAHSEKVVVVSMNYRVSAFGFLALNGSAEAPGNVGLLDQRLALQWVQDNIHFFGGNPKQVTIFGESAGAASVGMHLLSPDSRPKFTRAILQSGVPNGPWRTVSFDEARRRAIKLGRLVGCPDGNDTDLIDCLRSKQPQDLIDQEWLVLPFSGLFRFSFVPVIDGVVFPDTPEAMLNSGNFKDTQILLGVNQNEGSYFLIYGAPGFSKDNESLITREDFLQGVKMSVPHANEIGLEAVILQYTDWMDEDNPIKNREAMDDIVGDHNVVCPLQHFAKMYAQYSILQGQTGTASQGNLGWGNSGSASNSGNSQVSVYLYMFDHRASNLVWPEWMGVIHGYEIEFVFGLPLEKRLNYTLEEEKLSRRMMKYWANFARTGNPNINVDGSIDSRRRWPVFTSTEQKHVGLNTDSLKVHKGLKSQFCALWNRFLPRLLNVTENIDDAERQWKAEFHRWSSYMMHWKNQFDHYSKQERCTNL

T5 sequence (P05067 672-713): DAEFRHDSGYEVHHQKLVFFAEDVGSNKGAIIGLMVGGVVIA
T4 sequence (P05067 672-713): as above
ratBuChE, sequence (Q9JKC1 24-597): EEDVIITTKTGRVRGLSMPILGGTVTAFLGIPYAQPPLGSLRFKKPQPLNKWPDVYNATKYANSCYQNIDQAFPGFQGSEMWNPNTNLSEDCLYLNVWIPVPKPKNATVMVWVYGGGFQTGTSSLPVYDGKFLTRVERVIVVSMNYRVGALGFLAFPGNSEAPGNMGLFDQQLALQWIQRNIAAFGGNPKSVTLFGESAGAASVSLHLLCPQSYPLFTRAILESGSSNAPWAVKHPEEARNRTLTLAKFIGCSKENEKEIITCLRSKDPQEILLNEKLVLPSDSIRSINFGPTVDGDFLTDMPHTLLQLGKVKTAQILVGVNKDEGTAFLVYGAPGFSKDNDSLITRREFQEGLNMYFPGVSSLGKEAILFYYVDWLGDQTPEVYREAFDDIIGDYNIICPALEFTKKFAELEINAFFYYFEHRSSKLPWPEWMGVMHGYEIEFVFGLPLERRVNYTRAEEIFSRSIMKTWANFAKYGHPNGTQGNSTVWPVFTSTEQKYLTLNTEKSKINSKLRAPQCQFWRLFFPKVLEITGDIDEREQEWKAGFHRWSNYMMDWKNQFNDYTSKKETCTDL

Row | Disaggregation of Aβ1–42 aggregation (%) Cu^2+-induced (Aβ1–42 fibrils [1]) | Structure (SMILES) | IC50 (ratBuChE) | inhibition at 10 µM (huMAO-A) | IC50 (ratAChE) | SI = Selectivity index = IC50 (BuChE)/IC50 (AChE) (ratAChE) | inhibition at 10 µM (huMAO-B; read-out: MAO-B percent inhibition rate) | Disaggregation of Aβ1–42 aggregation (%) Cu^2+-induced (Aβ1–42 fibrils [1]; 25 μM, ThT assay) | inhibition at 25 µM (Aβ1–42 [2]) | inhibition at 25 µM (Aβ1–42 [3]) | ORAC [4] | Disaggregation of Aβ1–42 aggregation (%) Self-induced (Aβ1–42 fibrils [5]) | IC50 (eeAChE) | IC50 (huMAO-A) | IC50 (huMAO-B) | SI = selectivity index = IC50 (hMAO-A)/IC50 (hMAO-B) (huMAO-B) | ORAC-FL value [4] | Inhibition of Aβ1–42 aggregation (%) Self-induced (Aβ1–42 [2]; 25 μM)
1 | – | COc1ccccc1CN(C)CCCOc1ccc(/C=C/C(=O)c2c(O)cc(OC)c(O)c2OC)cc1 [Compound 17a, (E)-1-(3,6-dihydroxy-2,4-dimethoxyphenyl)-3-(4-(3-((2-methoxybenzyl)(methyl)amino)propoxy)phenyl)prop-2-en-1-one] | 326 ± 10.7 µM | 18.2% | 3450 ± 30 nM | 94.5 | 4.4% | 84.6 ± 0.03% | 67.4 ± 0.04% | 91.1 ± 0.01% | 3.1 ± 0.02 μM of Trolox equivalent/μM of compounds | 29.9 ± 0.03% | 2300 ± 10 nM | – | – | – | – | –
2 | – | COc1ccccc1CN(C)CCCCOc1ccc(/C=C/C(=O)c2c(O)cc(OC)c(OC)c2OC)cc1 [Compound 9c, (E)-1-(6-hydroxy-2,3,4-trimethoxyphenyl)-3-(4-(4-((2-methoxybenzyl)(methyl)amino)butoxy)phenyl)prop-2-en-1-one] | > 500 µM | – | 1770 ± 10 nM | >282.5 | – | 66.6 ± 0.36% | 65 ± 0.01% | 74.1 ± 0.02% | 0.97 ± 0.01 μM of Trolox equivalent/μM of compounds | 45.7 ± 0.12% | 1500 ± 20 nM | 35.7 ± 0.36 µM | 23.6 ± 0.12 µM | 1.5 | – | –
3 | 56.5 ± 0.21% | COc1cc(/C=C/C(=O)CC(=O)/C=C/c2ccc(O)c(OC)c2)ccc1O [Curcumin, reference compound] | – | – | – | – | – | – | 47.3 ± 0.01% | 76.5 ± 0.02% | – | – | – | – | – | – | – | –
4 | – | COc1ccccc1CN(C)CCCCCCOc1ccc(/C=C/C(=O)c2c(O)cc(OC)c(O)c2OC)cc1 [Compound 17e, (E)-1-(3,6-dihydroxy-2,4-dimethoxyphenyl)-3-(4-((6-((2-methoxybenzyl)(methyl)amino)hexyl)oxy)phenyl)prop-2-en-1-one] | > 500 µM | 17.9% | 1400 ± 20 nM | >357.1 | – | 83.7 ± 0.03% | 65.7 ± 0.03% | 96.2 ± 0.02% | 3.4 ± 0.02 μM of Trolox equivalent/μM of compounds | 74.8 ± 0.31% | 2160 ± 10 nM | – | 12.8 ± 0.31 µM | – | – | –
5 | – | COc1cc(O)c(C(=O)/C=C/c2ccc(O)cc2)c(OC)c1OC [Compound 8, (E)-1-(6-hydroxy-2,3,4-trimethoxyphenyl)-3-(4-hydroxyphenyl)-2-propen-1-one] | > 500 µM | 22.9% | > 500000 nM | – | – | – | 23.1 ± 0.01% | 33.2 ± 0.01% | 5.4 ± 0.01 μM of Trolox equivalent/μM of compounds | – | > 500000 nM | – | – | – | 5.4 eq | –
6 | – | COc1cc2c(cc1OC)C(=O)C(CC1CCN(Cc3ccccc3)CC1)C2 (stereo not shown) [Donepezil, reference compound] | – | – | – | – | – | – | < 5% | – | – | – | – | – | – | – | – | n.a.^g (no active, meaning inhibition rate was <5.0% at 25 μM)
7 | – | COc1cc(O)c(C(=O)/C=C/c2ccc(O)cc2)c(OC)c1O [Compound 16, 3′,4,6′-Trihydroxy-2′,4′-dimethoxy-chalcone] | > 500 µM | – | > 500000 nM | – | – | – | 27.7 ± 0.02% | 38.1 ± 0.01% | 7.8 ± 0.01 μM of Trolox equivalent/μM of compounds | – | > 500000 nM | 15.4 ± 0.16 µM | – | – | 7.8 eq | –
